Laboratory results taken from patent publication US4359461A, “Mono-, di- and tri-adamantylcarbonyl- digalactopyranosyl- glucopyranosyl- fructofuranose sulfate salts” (American Cyanamid Company, priority 1981, dated 1982).
Structures can show the parent of a compound that is named as a salt.

Columns and labels:
shunt pathway = assay: Test Code 036 (C-Shunt inhibitor), lysis of human erythrocytes in autologous serum via shunt pathway activated by cobra venom factor; assay type: biochemical; conditions: activity in wells, serial dilution assay; higher well number indicates higher activity
Source text: (§1) An active inhibitor protects C2 from C1 and C4; (ii) Test Code 035 (C3-C9 inhibitor)--This test determines the ability of the late components of human complement (C3-C9) to lyse EAC 142 in the presence of appropriate dilutions of the test compound. An active inhibitor protects EAC 142 from lysis by human C3-C9; (iii) Test Code 036 (C-Shunt inhibitor)--In this test human erythrocytes rendered fragile are lysed in autologous serum via the shunt pathway activated by cobra venom factor in the presence of appropriate dilutions of the test compound. Inhibition of the shunt pathway results in failure of lysis; (iv) Cap 50 Test--Here, appropriate amounts of the test compound are added to a pool of guinea pig serum in vitro, after which the complement level is determined in undiluted serum by the serum capillary tube assay of U.S. Pat. No. 3,876,376. The concentration of compound inhibiting 50% is reported; and (v) Guinea Pig Intraperitoneal Test (GPIP)--Guinea pigs weighing about 300 g are dosed intraperitoneally (i.p.) with 200 mg/kg of the test compound dissolved in saline and adjusted to pH 7-8. Approximately […], taken by orbital sinus puncture 30 minutes and one hour after injections, are collected directly into centrifuge tubes; 5 ml blood samples, taken by decapitation 2 hours after injection, are collected directly into diSPo® beakers. The samples were allowed to clot, centrifuged, and the resultant sera were assayed for complement activity using the capilllary complement assay. Percent inhibition is calculated by comparison with simultaneous controls. The results of the GPIP appear in Table I together with results of Test Code 026, 035, 036 and Cap 50.

[1] = system: complement activity of sera; assay: Guinea Pig Intraperitoneal Test (GPIP); assay type: in vivo; conditions: 200 mg/kg i.p.
Source text: as §1

[2] = system: late components of human complement (C3-C9); assay: Test Code 035 (C3-C9 inhibitor), lysis of EAC 142; assay type: biochemical; conditions: activity in wells, serial dilution assay; higher well number indicates higher activity
Source text: as §1

activated human C1 = activated human C1 (Homo sapiens, UniProt P09871); assay: Test Code 026 (C1 inhibitor); assay type: biochemical; conditions: activity in wells, serial dilution assay; higher well number indicates higher activity
Source text: as §1

Row | Compound | C-Shunt Inhibition 036 Wells (shunt pathway) | In Vivo Activity (Guinea pig) % Inhibition Intraperitoneal ([1]; 30 minutes) [%] | In Vivo Activity (Guinea pig) % Inhibition Intraperitoneal ([1]; 60 minutes) [%] | In Vivo Activity (Guinea pig) % Inhibition Intraperitoneal ([1]; 120 minutes) [%] | C-Late 035 Wells [2] | C1 026 Wells (activated human C1) | In Vivo Activity (Guinea pig) % Inhibition Intraperitoneal ([1]; 2 hours) [%] | In Vivo Activity (Guinea pig) % Inhibition Intraperitoneal ([1]; 6 hours) [%] | In Vivo Activity (Guinea pig) % Inhibition Intraperitoneal ([1]; 24 hours) [%]
1 | O=C(OC[C@H]1O[C@H](OC[C@H]2O[C@H](OC[C@H]3O[C@H](O[C@]4(COC(=O)C56CC7CC(CC(C7)C5)C6)O[C@H](COC(=O)C56CC7CC(CC(C7)C5)C6)[C@@H](OS(=O)(=O)O)[C@@H]4OS(=O)(=O)O)[C@H](OS(=O)(=O)O)[C@@H](OS(=O)(=O)O)[C@@H]3OS(=O)(=O)O)[C@H](OS(=O)(=O)O)[C@@H](OS(=O)(=O)O)[C@H]2OS(=O)(=O)O)[C@H](OS(=O)(=O)O)[C@@H](OS(=O)(=O)O)[C@H]1OS(=O)(=O)O)C12CC3CC(CC(C3)C1)C2 [1,6-Bis-O-(1-adamantylcarbonyl)-β-D-fructofuranosyl-6-O-1-adamantylcarbonyl-O-α-D-galactopyranosyl(1→6)-O-α-D-galactopyranosyl(1→6)-α-D-glucopyranoside, undecakis(H-sulfate), undecasodium salt] | +3 Wells | 11 | 12 | 72 | +1 Wells | +6 Wells | – | – | –
2 | O=C(OC[C@H]1O[C@H](OC[C@H]2O[C@H](OC[C@H]3O[C@H](O[C@]4(COS(=O)(=O)O)O[C@H](COC(=O)C56CC7CC(CC(C7)C5)C6)[C@@H](OS(=O)(=O)O)[C@@H]4OS(=O)(=O)O)[C@H](OS(=O)(=O)O)[C@@H](OS(=O)(=O)O)[C@@H]3OS(=O)(=O)O)[C@H](OS(=O)(=O)O)[C@@H](OS(=O)(=O)O)[C@H]2OS(=O)(=O)O)[C@H](OS(=O)(=O)O)[C@@H](OS(=O)(=O)O)[C@H]1OS(=O)(=O)O)C12CC3CC(CC(C3)C1)C2 [6,6'"-Di-1-adamantanecarboxylate-O--α-D-galactopyranosyl(1→6] [6,6'"-Di-1-adamantanecarboxylate-O-α-D-galactopyranosyl(1→6)-O-α-D-galactopyranosyl(1→6)-O-α-D-glucopyranosyl-β-D-fructofuranose, dodecakis(H-sulfate), dodecasalt with trimethylamine] | +3 Wells | – | – | – | +1 Wells | +9 Wells | – | – | –
3 | O=C(OC[C@H]1O[C@H](OC[C@H]2O[C@H](OC[C@H]3O[C@H](O[C@]4(COS(=O)(=O)O)O[C@H](COC(=O)C56CC7CC(CC(C7)C5)C6)[C@@H](OS(=O)(=O)O)[C@@H]4OS(=O)(=O)O)[C@H](OS(=O)(=O)O)[C@@H](OS(=O)(=O)O)[C@@H]3OS(=O)(=O)O)[C@H](OS(=O)(=O)O)[C@@H](OS(=O)(=O)O)[C@H]2OS(=O)(=O)O)[C@H](OS(=O)(=O)O)[C@@H](OS(=O)(=O)O)[C@H]1OS(=O)(=O)O)C12CC3CC(CC(C3)C1)C2 [6,6'"-Di-1-admantanecarboxylate-O--α-D-galactopyranosyl(1→6)] [6,6'"-Di-1-adamantanecarboxylate-O-α-D-galactopyranosyl(1→6)-O-α-D-galactopyranosyl(1→6)-O-α-D-glucopyranosyl-β-D-fructofuranose, dodecakis(H-sulfate), dodecasodium salt] | +2 Wells | 72 | 92 | 97 | – | – | – | – | –
4 | O=C(OC[C@H]1O[C@@](COS(=O)(=O)O)(O[C@H]2O[C@H](CO[C@H]3O[C@H](CO[C@H]4O[C@H](COS(=O)(=O)O)[C@H](OS(=O)(=O)O)[C@H](OS(=O)(=O)O)[C@H]4OS(=O)(=O)O)[C@H](OS(=O)(=O)O)[C@H](OS(=O)(=O)O)[C@H]3OS(=O)(=O)O)[C@@H](OS(=O)(=O)O)[C@H](OS(=O)(=O)O)[C@H]2OS(=O)(=O)O)[C@@H](OS(=O)(=O)O)[C@@H]1OS(=O)(=O)O)C12CC3CC(CC(C3)C1)C2 [6-O-(1-Adamantylcarbonyl)-β-D-fructofuranosyl-O-α-D-galactopyranosyl(1→6)-O-α-D-galactopyranosyl(1→6)-α-D-glucopyranoside, tridecakis(H-sulfate), tridecasalt with trimethylamine] | +5 Wells | – | – | – | – | – | – | – | –
5 | O=C(OC[C@H]1O[C@@](COS(=O)(=O)O)(O[C@H]2O[C@H](CO[C@H]3O[C@H](CO[C@H]4O[C@H](COS(=O)(=O)O)[C@H](OS(=O)(=O)O)[C@H](OS(=O)(=O)O)[C@H]4OS(=O)(=O)O)[C@H](OS(=O)(=O)O)[C@H](OS(=O)(=O)O)[C@H]3OS(=O)(=O)O)[C@@H](OS(=O)(=O)O)[C@H](OS(=O)(=O)O)[C@H]2OS(=O)(=O)O)[C@@H](OS(=O)(=O)O)[C@@H]1OS(=O)(=O)O)C12CC3CC(CC(C3)C1)C2 [6-O--(1-Adamantylcarbonyl)-β-D-fructofuranosyl-O--α-D-galact] [6-O-(1-Adamantylcarbonyl)-β-D-fructofuranosyl-O-α-D-galactopyranosyl(1→6)-O-α-D-galactopyranosyl(1→6)-α-D-glucopyranoside, tridecakis(H-sulfate), tridecasalt with trimethylamine] | – | – | – | – | – | +10 Wells | – | – | –
6 | O=C(OC[C@H]1O[C@@](COS(=O)(=O)O)(O[C@H]2O[C@H](CO[C@H]3O[C@H](CO[C@H]4O[C@H](COS(=O)(=O)O)[C@H](OS(=O)(=O)O)[C@H](OS(=O)(=O)O)[C@H]4OS(=O)(=O)O)[C@H](OS(=O)(=O)O)[C@H](OS(=O)(=O)O)[C@H]3OS(=O)(=O)O)[C@@H](OS(=O)(=O)O)[C@H](OS(=O)(=O)O)[C@H]2OS(=O)(=O)O)[C@@H](OS(=O)(=O)O)[C@@H]1OS(=O)(=O)O)C12CC3CC(CC(C3)C1)C2 [6-O--(1-Adamantylcarbonyl)-β-D-fructofuranosyl-O--α-D-galact] [6-O-(1-Adamantylcarbonyl)-β-D-fructofuranosyl-O-α-D-galactopyranosyl(1→6)-O-α-D-galactopyranosyl(1→6)-α-D-glucopyranoside, tridecakis(H-sulfate), tridecasodium salt] | – | – | – | – | +2 Wells | – | 78 | 71 | 59
